Literature values as cited in patent publication US20250195455A1, “COMBINATION NASAL AND ORAL THERAPY FOR WEIGHT LOSS” (priority 2022, published 2025).
Read-outs that look alike come from different tables or passages of the source.

Conditions: for Average weight loss/one year: vs. 3% placebo; for evidence of weight loss: no drug trials for weight loss

Row | Compound | patients that have 5% weight loss/12 weeks [%] | patients that have 10% weight loss/12 weeks [%] | Average weight loss/one year [%] | Average weight loss vs. placebo (vs. placebo) [kg./year] | further results
1 | C[C@@H](Cc1ccccc1)N(C)Cc1ccccc1 [Benzphetamine] | 80 | 50 | 10 | – | –
2 | CCN(CC)C(C)C(=O)c1ccccc1 (centres unmarked) [Diethylpropion] | 80 | 50 | 10 | – | –
3 | CNCCC(Oc1ccc(C(F)(F)F)cc1)c1ccccc1 (centres unmarked) [Fluoxetine] | – | – | – | – | evidence of weight loss: No evidence of weight loss
4 | C[C@H]1CNCCc2ccc(Cl)cc21 [Lorcaserin] | – | – | – | – | weight loss/year vs. placebo (per year, vs. placebo): 3-5%
5 | CCCCCCCCCCC[C@@H](C[C@@H]1OC(=O)[C@H]1CCCCCC)OC(=O)[C@H](CC(C)C)NC=O [Orlistat] | – | – | – | – | weight loss (vs. placebo)/6 months (6 months, vs. placebo): 5%; net loss (decreased fat absorption): approximately 500 kcal/day; net loss (equivalent of the kcal/day net loss): 1 lb./week
6 | C[C@H]1[C@H](c2ccccc2)OCCN1C [Phendimetrazine] | 80 | 50 | 10 | – | –
7 | CC(C)(N)Cc1ccccc1 [Phentermine] | 80 | 50 | 10 | – | –
8 | CN[C@H]1CC[C@@H](c2ccc(Cl)c(Cl)c2)c2ccccc21 [Sertraline] | – | – | – | – | evidence of weight loss: No evidence of weight loss
9 | CC1(C)O[C@@H]2[C@@H](CO[C@@]3(COS(N)(=O)=O)OC(C)(C)O[C@@H]23)O1 [Topiramate] | – | – | – | – | efficacy (vs. placebo) (vs. placebo): Minimal, if any efficacy
10 | Albeglutide | – | – | – | 2.9 | –
11 | Dulaglutide | – | – | – | 2.9 | –
12 | Lixisenatide | – | – | – | 2.9 | –
13 | Semaglutide (HAEGTFTSDVSSYLEGQAAKEFIAWLVKGRG; Glucagon-like peptide 1(7-37) semaglutide; Aib8, R34K, C18 diacid side chain; UniProt P01275 98-128, looked up) [GLP-1 agonist] | – | – | – | 2.9 | –
